Assay results from PubChem BioAssay (NCI).
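Cultured in 96-well plates, cells were exposed to test compound for 48 hours across five concentrations. GI50 marks 50% less growth. TGI marks complete inhibition of growth.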

Assays:
Assay in all cases: inhibition of tumour cell growth, NCI panel, 48 h
[1] = test system: 786-0 renal
[2] = test system: A549 NSCLC
[3] = test system: ACHN renal
[4] = test system: BT-549 breast
[5] = test system: CAKI-1 renal
[6] = test system: CCRF-CEM leukemia
[7] = test system: COLO 205 colon
[8] = test system: DU-145 prostate
[9] = test system: EKVX NSCLC
[10] = test system: HCC-2998 colon
[11] = test system: HCT-116 colon
[12] = test system: HCT-15 colon
[13] = test system: HL-60(TB) leukemia
[14] = test system: HOP-62 NSCLC
[15] = test system: HOP-92 NSCLC
[16] = test system: HT29 colon
[17] = test system: IGROV1 ovarian
[18] = test system: K-562 leukemia
[19] = test system: KM12 colon
[20] = test system: LOX IMVI melanoma
[21] = test system: M14 melanoma
[22] = test system: MALME-3M melanoma
[23] = test system: MCF7 breast
[24] = test system: MDA-MB-231 breast
[25] = test system: MDA-MB-435
[26] = test system: MOLT-4 leukemia
[27] = test system: NCI-H226 lung
[28] = test system: NCI-H23 lung
[29] = test system: NCI-H460 lung
[30] = test system: NCI-H522 lung
[31] = test system: NCI/ADR-RES ovarian
[32] = test system: OVCAR-3 ovarian
[33] = test system: OVCAR-4 ovarian
[34] = test system: OVCAR-5 ovarian
[35] = test system: OVCAR-8 ovarian
[36] = test system: PC-3 prostate
[37] = test system: RPMI-8226 leukemia
[38] = test system: RXF 393 renal
[39] = test system: SF-268 CNS
[40] = test system: SF-295 CNS
[41] = test system: SF-539 CNS
[42] = test system: SK-MEL-2 melanoma
[43] = test system: SK-MEL-28 melanoma
[44] = test system: SK-MEL-5 melanoma
[45] = test system: SK-OV-3 ovarian
[46] = test system: SN12C renal
[47] = test system: SNB-19 CNS
[48] = test system: SNB-75 CNS
[49] = test system: SR leukemia
[50] = test system: SW-620 colon
[51] = test system: T-47D breast
[52] = test system: TK-10 renal
[53] = test system: U251 CNS
[54] = test system: UACC-257 melanoma
[55] = test system: UACC-62 melanoma
[56] = test system: UO-31 renal
[57] = test system: HS 578T breast

Molecule `CCNC(=O)Nc1ccc(Oc2ccnc3ccc4c(ccn4C)c23)cc1` has a GI50 [1] of 35.5 µM, a TGI [1] of 96.7 µM and a GI50 [2] of 44.1 µM. The TGI [2] was greater than 100 µM, the GI50 [3] was 59.2 µM and the TGI [3] was greater than 100 µM. The GI50 [4] was 56.3 µM, the TGI [4] was greater than 100 µM and the GI50 [5] was 0.236 µM. For the same molecule, the TGI [5] was 0.961 µM, the GI50 [6] was 18.9 µM and the TGI [6] was greater than 100 µM. The GI50 [7] was 29.8 µM, the TGI [7] was greater than 100 µM and the GI50 [8] was greater than 100 µM. It also gave a TGI [8] greater than 100 µM, a GI50 [9] greater than 100 µM and a TGI [9] greater than 100 µM. It also gave a GI50 [10] of 28.2 µM, a TGI [10] of 63.9 µM and a GI50 [11] of 21.2 µM. The TGI [11] was greater than 100 µM, the GI50 [12] was 37.9 µM and the TGI [12] was greater than 100 µM. The GI50 [13] was greater than 100 µM, the TGI [13] was greater than 100 µM and the GI50 [14] was 46.9 µM. The TGI [14] was greater than 100 µM, the GI50 [15] was 45.5 µM and the TGI [15] was greater than 100 µM. The GI50 [16] was 44.6 µM, the TGI [16] was greater than 100 µM and the GI50 [17] was greater than 100 µM. For the same molecule, the TGI [17] was greater than 100 µM, the GI50 [18] was 47.4 µM and the TGI [18] was greater than 100 µM. It also gave a GI50 [19] of 37.7 µM, a TGI [19] greater than 100 µM and a GI50 [20] of 20.4 µM. The TGI [20] was 40.7 µM, the GI50 [21] was greater than 100 µM and the TGI [21] was greater than 100 µM. The GI50 [22] was 38.3 µM, the TGI [22] was greater than 100 µM and the GI50 [23] was 37.9 µM. For the same molecule, the TGI [23] was greater than 100 µM, the GI50 [24] was 26.3 µM and the TGI [24] was 62.8 µM. It also gave a GI50 [25] greater than 100 µM, a TGI [25] greater than 100 µM and a GI50 [26] of 58.2 µM. It also gave a TGI [26] greater than 100 µM, a GI50 [27] of 28.2 µM and a TGI [27] of 72.8 µM. The GI50 [28] was greater than 100 µM, the TGI [28] was greater than 100 µM and the GI50 [29] was 25 µM. For the same molecule, the TGI [29] was greater than 100 µM, the GI50 [30] was 43.8 µM and the TGI [30] was greater than 100 µM. The GI50 [31] was 55.8 µM, the TGI [31] was greater than 100 µM and the GI50 [32] was 19.7 µM. For the same molecule, the TGI [32] was 42.2 µM, the GI50 [33] was 54.2 µM and the TGI [33] was greater than 100 µM. The GI50 [34] was greater than 100 µM, the TGI [34] was greater than 100 µM and the GI50 [35] was 23 µM. For the same molecule, the TGI [35] was greater than 100 µM, the GI50 [36] was greater than 100 µM and the TGI [36] was greater than 100 µM. It also gave a GI50 [37] greater than 100 µM, a TGI [37] greater than 100 µM and a GI50 [38] of 17.9 µM. The TGI [38] was greater than 100 µM, the GI50 [39] was 50.7 µM and the TGI [39] was greater than 100 µM. It also gave a GI50 [40] of 18.9 µM, a TGI [40] of 72.1 µM and a GI50 [41] of 23.6 µM. For the same molecule, the TGI [41] was 85.1 µM, the GI50 [42] was 45.8 µM and the TGI [42] was greater than 100 µM. For the same molecule, the GI50 [43] was 9.33 µM, the TGI [43] was greater than 100 µM and the GI50 [44] was 75.5 µM. It also gave a TGI [44] greater than 100 µM, a GI50 [45] of 19.4 µM and a TGI [45] of 56.5 µM. The GI50 [46] was 20.9 µM, the TGI [46] was 43.8 µM and the GI50 [47] was 40.1 µM. The TGI [47] was greater than 100 µM, the GI50 [48] was 59.9 µM and the TGI [48] was greater than 100 µM. The GI50 [49] was 12.1 µM, the TGI [49] was greater than 100 µM and the GI50 [50] was greater than 100 µM. For the same molecule, the TGI [50] was greater than 100 µM, the GI50 [51] was 23.2 µM and the TGI [51] was 62.1 µM. It also gave a GI50 [52] of 33.5 µM, a TGI [52] of 99.3 µM and a GI50 [53] of 20.6 µM. For the same molecule, the TGI [53] was 44.7 µM, the GI50 [54] was 28.4 µM and the TGI [54] was 86.2 µM. For the same molecule, the GI50 [55] was 19.5 µM, the TGI [55] was 39.3 µM and the GI50 [56] was 92.3 µM. It also gave a TGI [56] greater than 100 µM.
Molecule `COc1ccc2nc3c([N+](=O)[O-])ccc(NCCCN(C)C)c3c(NCCCN(C)C)c2c1` has a TGI [1] of 2.13 µM, a TGI [2] of 3.43 µM and a TGI [5] of 3.98 µM. It also gave a TGI [6] of 2.4 µM, a TGI [8] greater than 10 µM and a TGI [9] of 5.09 µM. For the same molecule, the TGI [10] was 2.61 µM, the TGI [12] was 2.86 µM and the TGI [13] was 8.81 µM. The TGI [14] was 3.07 µM, the TGI [15] was greater than 10 µM and the TGI [16] was 2.56 µM. It also gave a TGI [17] of 4.07 µM, a TGI [18] of 5.89 µM and a TGI [19] of 2.54 µM. It also gave a TGI [20] of 3 µM, a TGI [21] greater than 10 µM and a TGI [22] greater than 10 µM. It also gave a TGI [23] of 2.33 µM, a TGI [24] of 2.87 µM and a TGI [25] greater than 10 µM. The TGI [26] was 1.26 µM, the TGI [28] was 3.46 µM and the TGI [33] was 2.29 µM. It also gave a TGI [35] of 2.9 µM, a TGI [36] of 2.24 µM and a TGI [37] of 2.53 µM. The TGI [38] was 2.02 µM, the TGI [39] was greater than 10 µM and the TGI [40] was 3.01 µM. It also gave a TGI [43] of 3.42 µM, a TGI [44] of 3.46 µM and a TGI [45] of 4.14 µM. For the same molecule, the TGI [46] was 2.63 µM, the TGI [48] was 3.49 µM and the TGI [49] was 1.14 µM. It also gave a TGI [50] of 6.22 µM, a TGI [51] greater than 10 µM and a TGI [52] of 5.52 µM. For the same molecule, the TGI [54] was greater than 10 µM and the TGI [55] was greater than 10 µM.
In the case of `CC(C)(C)[Si](C)(C)OCC1OC(n2cc(I)c(=O)[nH]c2=O)C(O[Si](C)(C)C(C)(C)C)C1O[Si](C)(C)C(C)(C)C` (configuration not stated), the TGI [2] is reported as 26.1 µM, the TGI [3] is reported as 28.5 µM and the TGI [4] is reported as 50.7 µM. For the same molecule, the TGI [7] was 53.7 µM, the TGI [9] was 45.6 µM and the TGI [12] was greater than 100 µM. For the same molecule, the TGI [14] was 39.8 µM, the TGI [15] was 56.2 µM and the TGI [57] was 57.2 µM. The TGI [16] was 37 µM, the TGI [17] was 38.1 µM and the TGI [20] was 35.2 µM. For the same molecule, the TGI [21] was 45.4 µM, the TGI [22] was greater than 100 µM and the TGI [23] was 29.4 µM. The TGI [24] was 37.4 µM, the TGI [26] was greater than 100 µM and the TGI [27] was 48 µM. It also gave a TGI [29] of 36.8 µM, a TGI [30] of 25.2 µM and a TGI [31] greater than 100 µM. It also gave a TGI [32] of 28 µM, a TGI [33] greater than 100 µM and a TGI [34] of 45.7 µM. It also gave a TGI [35] of 29.1 µM, a TGI [36] of 43.1 µM and a TGI [39] of 43 µM. It also gave a TGI [40] of 36.8 µM, a TGI [44] of 31.4 µM and a TGI [45] of 75.4 µM. The TGI [46] was greater than 100 µM, the TGI [47] was 43.2 µM and the TGI [48] was 33 µM. It also gave a TGI [49] greater than 100 µM, a TGI [50] of 41.4 µM and a TGI [51] of 47.6 µM. It also gave a TGI [54] of 67.6 µM, a TGI [55] of 35.4 µM and a TGI [56] of 50.2 µM.
